According to patent US12060349B2, “Glucosylceramide synthase inhibitors” (Genzyme Corporation, priority 2012, dated 2024):
Where two headings read alike, the source gives them in different places.

Experiments:
B16 mouse melanoma cells = assay: cell viability in the B16 cell-based assay (Viability, B16 IC50); conditions: Mus musculus
In short: (§1)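 Cell death was scored within the cell-based GM3 experiment for each line. The viability value is the concentration producing 50% death, and numbers exceeding 10 signify no cytotoxicity.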

[1] = target: T1, glucosylceramide synthase (Homo sapiens, UniProt Q16739); assay: microsomal assay measuring conversion of ceramide to glucosylceramide by HPLC (GCS IC50); assay type: biochemical; conditions: concentration causing 50% inhibition of glucosylceramide synthase activity
T1 construct: Microsomes were isolated from A375 human melanoma cells; endogenous in cells; host or cells: A375 human melanoma cells (microsomal fraction, 100,000 g pellet)
T1 sequence (Q16739 1-394): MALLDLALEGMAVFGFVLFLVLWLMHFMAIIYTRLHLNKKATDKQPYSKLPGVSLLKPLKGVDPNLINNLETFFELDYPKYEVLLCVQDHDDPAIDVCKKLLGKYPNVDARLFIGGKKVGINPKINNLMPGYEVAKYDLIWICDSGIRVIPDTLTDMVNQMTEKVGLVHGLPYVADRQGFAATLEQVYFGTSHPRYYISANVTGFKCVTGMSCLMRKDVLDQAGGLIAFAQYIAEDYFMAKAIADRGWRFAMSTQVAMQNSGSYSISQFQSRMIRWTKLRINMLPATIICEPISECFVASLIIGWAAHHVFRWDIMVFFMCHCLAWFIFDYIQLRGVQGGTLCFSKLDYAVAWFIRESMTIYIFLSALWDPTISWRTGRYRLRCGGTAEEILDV
In short: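 IC50 is the compound concentration halving glucosylceramide synthase activity. Activity was measured in microsomes, with HPLC quantifying glucosylceramide formed from ceramide.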

C32 human melanoma cells = assay: cell viability in the C32 cell-based assay (Viability, C32 IC50); conditions: Homo sapiens, concentration causing 50% cell death, values greater than 10 represent a lack of cell death
In short: as §1

[2] = system: GM3 expression on the cell surface, B16 mouse melanoma cells; assay: cell based phenotypic assay, cell surface GM3 by antibody mediated immunofluorescence, B16 (GM3 B16 IC50); conditions: Mus musculus, 50% inhibition of GM3 expression on the cell surface
In short: (§2)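 Both lines undergo the phenotypic GM3 assay, and viability is recorded from that same cell-based run.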

[3] = system: GM3 expression on the cell surface, C32 human melanoma cells; assay: cell based phenotypic assay, cell surface GM3 by antibody mediated immunofluorescence, C32 (GM3 C32 IC50); conditions: Homo sapiens, 50% inhibition of GM3 expression on the cell surface
In short: as §2

[4] = B16, B16 cells, concentration causing 50% cell death, values greater than 10 represent a lack of cell death, read-out: Viability, B16 IC50
[5] = C32, C32 cells, read-out: Viability, C32 IC50
[6] = B16 mouse melanoma cells, read-out: GM3 B16 IC50
[7] = C32 human melanoma cells, read-out: GM3 C32 IC50

COCCCOc1ccc(-c2cccc(C(C)(C)NC(=O)OC3CCN4CCC3CC4)c2)nn1 (centres unmarked) [Example 313, 1-Azabicyclo[3.2.2]nonan-4-yl (2-(3-(6-(3-methoxypropoxy)pyridazin-3-yl)phenyl)propan-2-yl)carbamate]
IC50 (B16 mouse melanoma cells; [4]): ≥ 10000 nM | IC50 [1]: 88.9 nM | IC50 (C32 human melanoma cells; [5]): ≥ 10000 nM | IC50 [2, 6]: 470 nM | IC50 [3, 7]: 10.7 nM

COCCOc1ccc(-c2ccc(C3(NC(=O)NC4CN5CCC4CC5)CC3)cc2)cc1 (centres unmarked) [Example 162, 1-(1-(4′-(2-Methoxyethoxy)-[1,1′-biphenyl]-4-yl)cyclopropyl)-3-(quinuclidin-3-yl)urea]
IC50 (B16 mouse melanoma cells; [4]): 3540 nM | IC50 [1]: 28.1 nM | IC50 (C32 human melanoma cells; [5]): 1000 nM | IC50 [2, 6]: 72.7 nM | IC50 [3, 7]: 2.21 nM

CC1(NC(=O)C2(F)CCN(c3cncc(Oc4ccc(F)cc4)c3)CC2)CCN2CCC1CC2 (centres unmarked) [Example 127, 4-Fluoro-1-(5-(4-fluorophenoxy)pyridin-3-yl)-N-(4-methyl-1-azabicyclo[3.2.2]nonan-4-yl)piperidine-4-carboxamide]
IC50 (B16 mouse melanoma cells; [4]): 6980 nM | IC50 [1]: 2.27 nM | IC50 (C32 human melanoma cells; [5]): 316 nM | IC50 [2, 6]: 106 nM | IC50 [3, 7]: 0.569 nM

CCCC1(NC(=O)NC(C)(C)c2ccc(-c3ccc(S(C)(=O)=O)cc3)cc2)CN2CCC1CC2 (centres unmarked) [Example 237, 1-(2-(4′-(Methylsulfonyl)-[1,1′-biphenyl]-4-yl)propan-2-yl)-3-(3-propylquinuclidin-3-yl)urea]
IC50 (B16 mouse melanoma cells; [4]): ≥ 10000 nM | IC50 [1]: 35.4 nM | IC50 (C32 human melanoma cells; [5]): ≥ 10000 nM | IC50 [2, 6]: 32.9 nM | IC50 [3, 7]: 6.71 nM

CCC1(NC(=O)NC(C)(C)c2ccc(-c3ccc(S(=O)(=O)CCCOC)cc3)cc2)CN2CCC1CC2 (centres unmarked) [Example 243, 1-(3-Ethylquinuclidin-3-yl)-3-(2-(4′-((3-methoxypropyl)sulfonyl)-[1,1′-biphenyl]-4-yl)propan-2-yl)urea]
IC50 (B16 mouse melanoma cells; [4]): ≥ 10000 nM | IC50 [1]: 32.8 nM | IC50 (C32 human melanoma cells; [5]): 3160 nM | IC50 [2, 6]: 57.3 nM | IC50 [3, 7]: 7.49 nM

CC(C)(C)CCS(=O)(=O)c1ccc(C#CC(C)(C)NC(=O)NC2(C)CN3CCC2CC3)cc1 (centres unmarked) [Example 337, 1-(4-(4-((3,3-Dimethylbutyl)sulfonyl)phenyl)-2-methylbut-3-yn-2-yl)-3-(3-methylquinuclidin-3-yl)urea]
IC50 (B16 mouse melanoma cells; [4]): 2150 nM | IC50 [1]: 14.5 nM | IC50 (C32 human melanoma cells; [5]): 1000 nM | IC50 [2, 6]: 94.1 nM | IC50 [3, 7]: 2.54 nM

COCC1(CS(=O)(=O)c2ccc(-c3ccc(C(C)(C)NC(=O)OC4CN5CCC4CC5)cc3)cc2)CC1 (centres unmarked) [Example 249, Quinuclidin-3-yl (2-(4′-(((1-(methoxymethyl)cyclopropyl)methyl)sulfonyl)-[1,1′-biphenyl]-4-yl)propan-2-yl)carbamate]
IC50 (B16 mouse melanoma cells; B16, read-out: Viability, B16 IC50): ≥ 10000 nM | IC50 [1]: 53.5 nM | IC50 (C32 human melanoma cells; C32, read-out: Viability, C32 IC50, C32 cells): 2150 nM | IC50 ([2]; read-out: GM3 B16 IC50, B16 mouse melanoma cells): 247 nM | IC50 ([3]; read-out: GM3 C32 IC50, C32 human melanoma cells): 5.82 nM

CC(C)(NC(=O)NC1(C)CN2CCC1CC2)c1ccc(Oc2ccc(C(=O)N3CCOCC3)cc2)cc1 (centres unmarked) [Example 280, 1-(3-Methylquinuclidin-3-yl)-3-(2-(4-(4-(morpholine-4-carbonyl)phenoxy)phenyl)propan-2-yl)urea]
IC50 (B16 mouse melanoma cells; [4]): ≥ 10000 nM | IC50 [1]: 164 nM | IC50 (C32 human melanoma cells; [5]): 1000 nM | IC50 [2, 6]: 1940 nM | IC50 [3, 7]: 49.1 nM

COCc1ccc(-c2ccnc(N3CCC(F)(C(=O)N[C@]4(C)CN5CCC4CC5)CC3)n2)cc1 [Example 81, (S)-4-Fluoro-1-(4-(4-(methoxymethyl)phenyl)pyrimidin-2-yl)-N-(3-methylquinuclidin-3-yl)piperidine-4-carboxamide]
IC50 (B16 mouse melanoma cells; [4]): ≥ 10000 nM | IC50 [1]: 2.3 nM | IC50 (C32 human melanoma cells; [5]): 316 nM | IC50 [2, 6]: 48.1 nM | IC50 [3, 7]: 0.222 nM

CNC(=O)c1ccc(-c2ccc(C(C)(C)NC(=O)NC3(C)CCN4CCC3CC4)cc2)cc1 (centres unmarked) [Example 255, N-Methyl-4′-(2-(3-(4-methyl-1-aza-bicyclo[3.2.2]nonan-4-yl)ureido)propan-2-yl)biphenyl-4-carboxamide]
IC50 (B16 mouse melanoma cells; [4]): 6790 nM | IC50 [1]: 46.9 nM | IC50 (C32 human melanoma cells; [5]): 1000 nM | IC50 [2, 6]: 3420 nM | IC50 [3, 7]: 20.1 nM
